Consider nine molecules from patent US20110306636A1, “OXAZOLE PYRIDINE DERIVATIVES USEFUL AS S1P1 RECEPTOR AGONISTS” (Merck Serono SA, priority 2009, published 2011).

pEC50: −log10 of the molar value. Where a name gives a salt, the structure may show the parent alone. Read-outs that look alike come from different tables or passages of the source.

One assay addresses S1P1 (Homo sapiens, UniProt P21453). In words: Receptor binding assay, [33P]sphingosine 1-phosphate competition, S1P1. As for the experimental part: (§1) Membranes Preparation: Membranes were prepared from CHO cells expressing S1P1 or S1P3 for use in ligand and 35S-GTPγS binding studies. Cells were suspended in 50 mM TRIS, pH 7.4, 2 mM EDTA, 250 mM Sucrose (buffer A) and 1× Complete protease inhibitor cocktail (Roche), and disrupted at 4° C. by N2 decompression using a cell disruption bomb (Parr Instrument). Following centrifugation at 1000 RPM for 10 min at 4° C., the supernatant was diluted (2×) in buffer A and centrifuged again at 19000 RPM for 75 min at 4° C. The pellet was then suspended in 10 mM HEPES, pH 7.4, 1 mM EDTA, 250 mM Sucrose (Buffer B), and 1× Complete EDTA-free protease inhibitor cocktail and homogenized using a potter. Membranes were flash frozen in liquid N2 and stored at −80° C.
(§2) Receptor binding assay: [33P]sphingosine 1-phosphate (3000 Ci/mmol; American Radiolabeled Chemicals, Inc.) was added to test compounds in 20% DMSO by competition. Membranes and WGA SPA beads (GE Healthcare) were added to give a final volume of 100 μl in 96-well plates or 50 μl in 384-well plates with assay concentrations of 30 pM or 15 pM [33P]sphingosine 1-phosphate (respectively for S1P1 or S1P3), 50 mM HEPES, pH 7.5, 5 mM MgCl2, 100 mM NaCl, 0.4% fatty acid-free BSA, 1-5 μg/well of proteins in 96-well plates vs 0.6-1 μg/well of proteins in 384-well plates and 100 μg/well of WGA SPA beads in 96-well plates vs 75 μg/well of WGA SPA beads in 384-well plates. Binding was performed for 60 min at RT on a shaker and bound radioactivity was measured on a PerkinElmer 1450 MicroBeta counter. Triplicate samples were averaged and normalized as purcentage of inhibition relative to total binding (only DMSO in well) and non specific binding (1000-fold excess of unlabeled S1P). Binding data were analyzed using the GraphPad Prism program or Genedata software.

For the next assay, the target named is S1P3 (Homo sapiens, UniProt Q99500). In words: Receptor binding assay, [33P]sphingosine 1-phosphate competition, S1P3. As for the experimental part: as §1, §2
The target in assay [1] is T1, human S1P1 Receptor fused to the green fluorescent protein (EGFP) (Homo sapiens, UniProt P21453).
T1 construct: host or cells: U2OS (human bone osteosarcoma epithelial cells), CMV promoter, geneticin selection
The experiment in a line: Internalization of S1P1 in S1P1-U2OS cells by cell imaging analysis. The assay is classed as cell-based. The following applies: 1 hour incubation, 384-well. As to the method:
Cellular Functional Assays: Internalization of Sphingosine-1-Phosphate Receptor 1 (S1P1) in a Human Cell Line (U2OS) in a 384-Well Format Using a Cell Imaging Analysis.
The S1P1 internalization assay was performed in 384 well plates (Corning® 384 black with clear bottom 3712) using S1P1-U2OS cells from BioImage (C039A), a human epithelial cell line (Human Bone Osteosarcoma Epithelial Cells). These cells expressed the human S1P1 Receptor fused to the green fluorescent protein (EGFP). A standard CMV promoter (cytomegalovirus promoter) controls the expression of S1P1-EGFP and continuous expression was maintained by addition of geneticin to the culture medium.
S1P1 Receptor desensitization induced the internalization of the membrane-localized S1P1-EGFP fusion protein to endosomes, which can be monitored by cell imaging analysis.
The cells are plated in low serum medium (Dulbecco's Modified Eagle Medium (DMEM) with Glutamax-1 and high glucose, 1% Penicillin/Streptomycin, 1% Fetal Calf Serum (FCS), 0.5 mg/ml Geneticin) overnight.
The next day, S1P1-U2OS cells are incubated in 20 μl serum free medium (DMEM with Glutamax-1 and high glucose, 0.1% of fatty-acid free Bovin Serum Albumin (BSA), 10 mM, N′-2-Hydroxyethylpiperazine-N′-2 ethanesulphonic acid (HEPES) 1M) for 2 hours at 37° C./5% CO2.
The cells are then treated with 4 μl compounds/agonists (6×/3% DMSO) for a total volume of 24 μl, and plates are incubated for 1 hour at 37° C./5% CO2.
S1P1-U2OS cells are fixed with 25 μl Paraformaldehyde 8% and stained with Hoechst 33345 dye (1:1000) for 20 minutes.
They were then washed 3 times with Phosphate Buffered Saline (PBS) and plates are sealed.
The internalization of the receptor S1P1-EGFP is measured on Cellomics by calculating the “spot count per object” (“object” corresponds to nuclear and “spot” corresponds to S1P1-EGFP receptor). Internalization data were observed thanks to vHCS View and analyzed using Genedata® software.

Setting [2] is: 96 well-plate, read-out: S1P1 binding IC50 (M) (96 well-plate).
[3] abbreviates: 384 well-plate, read-out: S1P1 binding IC50 (M) (384 well-plate).
Setting [4] is: 96 well-plate, read-out: S1P3 binding IC50 (M) (96 well-plate).
The mark [5] stands for this setting: 384 well-plate, read-out: S1P3 binding IC50 (M) (384 well-plate).

S1P3, sequence (Q99500 whole entry, species assumed, the tested form may be a part): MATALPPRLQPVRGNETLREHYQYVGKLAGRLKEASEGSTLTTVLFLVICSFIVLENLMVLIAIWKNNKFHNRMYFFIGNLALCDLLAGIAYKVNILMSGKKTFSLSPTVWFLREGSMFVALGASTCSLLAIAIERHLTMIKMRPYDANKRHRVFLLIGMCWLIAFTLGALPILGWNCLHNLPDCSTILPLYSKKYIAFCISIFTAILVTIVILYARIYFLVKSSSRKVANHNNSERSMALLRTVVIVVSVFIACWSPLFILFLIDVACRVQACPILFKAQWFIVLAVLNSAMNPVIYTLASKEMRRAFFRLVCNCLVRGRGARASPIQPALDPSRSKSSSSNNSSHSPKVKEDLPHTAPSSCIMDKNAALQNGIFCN
S1P1, sequence (P21453 whole entry, species assumed): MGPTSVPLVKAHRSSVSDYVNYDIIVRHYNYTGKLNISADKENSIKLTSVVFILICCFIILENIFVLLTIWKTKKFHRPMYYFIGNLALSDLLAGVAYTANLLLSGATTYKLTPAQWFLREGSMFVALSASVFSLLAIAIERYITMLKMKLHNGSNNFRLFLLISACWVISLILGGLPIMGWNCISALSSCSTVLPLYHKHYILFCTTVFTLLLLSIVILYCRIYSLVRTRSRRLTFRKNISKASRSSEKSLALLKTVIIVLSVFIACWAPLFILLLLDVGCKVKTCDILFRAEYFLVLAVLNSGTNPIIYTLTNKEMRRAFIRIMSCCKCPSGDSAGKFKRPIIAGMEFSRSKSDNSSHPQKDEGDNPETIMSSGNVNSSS
T1 sequence (P21453 with tags, fused parts or gaps): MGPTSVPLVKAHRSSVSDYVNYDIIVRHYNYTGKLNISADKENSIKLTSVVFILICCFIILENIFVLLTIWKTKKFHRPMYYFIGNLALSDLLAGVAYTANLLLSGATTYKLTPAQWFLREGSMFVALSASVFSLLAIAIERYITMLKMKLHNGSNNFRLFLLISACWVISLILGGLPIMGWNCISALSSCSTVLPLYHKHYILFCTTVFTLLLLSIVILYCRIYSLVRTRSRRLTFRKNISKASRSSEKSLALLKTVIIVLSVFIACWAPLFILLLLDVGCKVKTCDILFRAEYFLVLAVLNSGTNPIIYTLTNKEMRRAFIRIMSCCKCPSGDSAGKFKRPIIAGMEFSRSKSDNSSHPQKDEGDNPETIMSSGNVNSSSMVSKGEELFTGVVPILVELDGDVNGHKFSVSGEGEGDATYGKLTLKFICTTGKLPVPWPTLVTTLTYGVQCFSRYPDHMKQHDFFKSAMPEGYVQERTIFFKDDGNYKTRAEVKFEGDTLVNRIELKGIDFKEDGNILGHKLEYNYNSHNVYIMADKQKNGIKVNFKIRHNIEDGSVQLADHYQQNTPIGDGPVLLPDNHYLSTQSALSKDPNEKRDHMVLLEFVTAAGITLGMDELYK

Regarding `COCc1cc(-c2nc(-c3cnc(N)c(Cl)c3)no2)ccc1-c1ccccc1F` [Example 46, 3-chloro-5-{5-[2′-fluoro-2-(methoxymethyl)biphenyl-4-yl]-1,2,4-oxadiazol-3-yl}pyridin-2-amine], the IC50 (in general, the midpoint of a concentration-inhibition curve) on S1P1 (setting [2]) was found to be 3.31e-09 M; at S1P1 (setting [3]), 4.42e-08 M; on S1P3 (setting [4]) it was 7.21e-06 M. Also, the pEC50 (in general, the EC50 on a negative log10 scale, so that one unit is a factor of ten) in assay [1] was 7.23.

Consider `COCc1cc(-c2nc(-c3ccnc(CNCC(=O)O)c3)no2)ccc1-c1ccccc1C` [Example 69, 2-((4-(5-(2-(methoxymethyl)-2′-methylbiphenyl-4-yl)-1,2,4-oxadiazol-3-yl)pyridin-2-yl)methylamino)acetic acid], for which the IC50 was determined as 2.6e-09 M at S1P1 (setting [2]), 3.19e-09 M on S1P1 (setting [3]), 1.7e-07 M at S1P3 (setting [4]) and 1.62e-07 M on S1P3 (setting [5]). The pEC50 in assay [1] was 8.04.

Regarding `COCc1cc(-c2nc(-c3cnc(NCCC(=O)O)c(C)c3)no2)ccc1-c1ccccc1F` [Example 53, N-(5-{5-[2′-fluoro-2-(methoxymethyl)biphenyl-4-yl]-1,2,4-oxadiazol-3-yl}-3-methylpyridin-2-yl)-beta-alanine, hydrochloride salt], the results for the half-maximal inhibitory concentration (IC50) at S1P1 (setting [2]) and on S1P3 (setting [4]) were 6.38e-09 M and 3.1e-06 M, respectively. In assay [1], the pEC50 was 7.00.

`CC1CCCCN1c1ccc(-c2nc(-c3ccnc(CN(C)CCC(=O)O)c3)no2)cc1C(F)(F)F` (centres unmarked) [Example 67, 3-(methyl((4-(5-(4-(2-methylpiperidin-1-yl)-3-(trifluoromethyl)phenyl)-1,2,4-oxadiazol-3-yl)pyridin-2-yl)methyl)amino)propanoic acid]: the IC50 on S1P1 (setting [2]) came to 1.2e-09 M; at S1P3 (setting [4]) it was 1.41e-07 M; on S1P3 (setting [5]), 4.68e-07 M. This molecule also showed a pEC50 in assay [1] of 7.85.

On to `CCOc1cc(-c2nc(-c3cnc(NCCC(=O)O)c(Cl)c3)no2)ccc1-c1ccccc1C` [Example 65, N-{3-chloro-5-[5-(2-ethoxy-2′-methylbiphenyl-4-yl)-1,2,4-oxadiazol-3-yl]pyridin-2-yl}-beta-alanine, hydrochloride salt], for which the IC50 on S1P1 (setting [2]) came out at 2.07e-09 M; at S1P1 (setting [3]), 7.95e-09 M; on S1P3 (setting [4]), 1.6e-06 M; at S1P3 (setting [5]), 2.41e-06 M. Moreover, the pEC50 in assay [1] is 7.79.

Turning to `COCc1cc(-c2nc(-c3cnc(NCCCC(=O)O)c(C)c3)no2)ccc1-c1ccccc1F` [Example 55, 4-[(5-{5-[2′-fluoro-2-(methoxymethyl)biphenyl-4-yl]-1,2,4-oxadiazol-3-yl}-3-methylpyridin-2-yl)amino]butanoic acid, hydrochloride salt], the IC50 on S1P1 (setting [2]) came to 6.02e-09 M; on S1P3 (setting [4]) it was 2.82e-06 M; at S1P3 (setting [5]), 3.39e-06 M. In assay [1], the pEC50 is 7.19.

Turning to `COCc1cc(-c2nc(-c3cnc(NCCC(=O)O)c(C)c3)no2)ccc1-c1ccccc1C` [Example 58, N-(5-{5-[2-(methoxymethyl)-2′-methylbiphenyl-4-yl]-1,2,4-oxadiazol-3-yl}-3-methylpyridin-2-yl)-beta-alanine, hydrochloride salt], the half-maximal inhibitory concentration (IC50) on S1P1 (setting [2]) was 2.94e-09 M; at S1P1 (setting [3]) it was 2.48e-08 M; on S1P3 (setting [4]), 9.3e-06 M; on S1P3 (setting [5]), 5.26e-06 M. For the same molecule, the pEC50 in assay [1] is 7.34.

Turning to `COCc1cc(-c2nc(-c3cnc(NCCC(=O)O)c(Cl)c3)no2)ccc1-c1cccc(F)c1C` [Example 72, N-(3-chloro-5-{5-[3′-fluoro-2-(methoxymethyl)-2′-methylbiphenyl-4-yl]-1,2,4-oxadiazol-3-yl}pyridin-2-yl)-beta-alanine, hydrochloride salt], the IC50 was determined as 8.69e-09 M at S1P1 (setting [3]) and 3.78e-06 M on S1P3 (setting [5]). The pEC50 in assay [1] is 7.63.

On to `COCc1cc(-c2nc(-c3cnc(NCCCC(=O)O)c(Cl)c3)no2)ccc1-c1ccccc1C` [Example 56, 4-[(3-chloro-5-{5-[2-(methoxymethyl)-2′-methylbiphenyl-4-yl]-1,2,4-oxadiazol-3-yl}pyridin-2-yl)amino]butanoic acid, hydrochloride salt], for which the IC50 on S1P1 (setting [2]) came to 1.71e-09 M; at S1P1 (setting [3]) it was 4.77e-09 M; at S1P3 (setting [4]), 2.09e-06 M; at S1P3 (setting [5]), 1.71e-06 M. In addition, the pEC50 in assay [1] is 7.39.
